Calls of active or inactive are those of the source.
Columns and labels:
[1] = target: T1, High affinity choline transporter 1 (Homo sapiens, UniProt Q9GZV3); experiment: human choline transporter blockers, potency – cell-based, 5-point CRC, membrane potential dye, dose response (AID 504840); assay type: functional
T1 sequence (Q9GZV3 whole entry): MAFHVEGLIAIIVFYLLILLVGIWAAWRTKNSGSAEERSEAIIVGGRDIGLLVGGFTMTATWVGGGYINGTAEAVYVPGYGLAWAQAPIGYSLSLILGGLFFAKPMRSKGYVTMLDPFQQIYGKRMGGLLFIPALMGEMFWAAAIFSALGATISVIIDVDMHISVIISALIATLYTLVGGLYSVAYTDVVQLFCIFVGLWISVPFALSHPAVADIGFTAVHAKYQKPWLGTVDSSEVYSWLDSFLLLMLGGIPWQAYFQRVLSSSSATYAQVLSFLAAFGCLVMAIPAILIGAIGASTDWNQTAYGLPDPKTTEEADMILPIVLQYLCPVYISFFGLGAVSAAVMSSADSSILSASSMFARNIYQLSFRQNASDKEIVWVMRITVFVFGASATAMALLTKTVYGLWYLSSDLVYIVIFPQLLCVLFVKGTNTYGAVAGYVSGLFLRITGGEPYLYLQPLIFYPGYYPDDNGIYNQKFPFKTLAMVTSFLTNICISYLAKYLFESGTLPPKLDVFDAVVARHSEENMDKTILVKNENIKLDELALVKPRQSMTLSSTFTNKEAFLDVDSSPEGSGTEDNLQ

[2] = viability of uninfected HEp-2 cells – cell-based, HTS, cytotoxicity control for RSV inhibitor project, dose response (AID 2410); assay type: functional; details: human respiratory syncytial virus
[3] = general mammalian cell viability loss – activator set, cherry-pick, cytotoxicity control for miR-122 modulator project, dose response (AID 720690); assay type: functional, cell-based;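 note: HEK293T human cells scored for general mammalian cytotoxicity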
[4] = target: T2, Adenosylmethionine-8-amino-7-oxononanoate aminotransferase (Mycobacterium tuberculosis, UniProt P9WQ81); experiment: Mycobacterium tuberculosis BioA enzyme inhibitor Measured in Biochemical System Using Plate Reader - 2163-02_Inhibitor_Dose_CherryPick_Activity.; assay type: functional, Mycobacterium tuberculosis UT205
T2 sequence (P9WQ81 whole entry): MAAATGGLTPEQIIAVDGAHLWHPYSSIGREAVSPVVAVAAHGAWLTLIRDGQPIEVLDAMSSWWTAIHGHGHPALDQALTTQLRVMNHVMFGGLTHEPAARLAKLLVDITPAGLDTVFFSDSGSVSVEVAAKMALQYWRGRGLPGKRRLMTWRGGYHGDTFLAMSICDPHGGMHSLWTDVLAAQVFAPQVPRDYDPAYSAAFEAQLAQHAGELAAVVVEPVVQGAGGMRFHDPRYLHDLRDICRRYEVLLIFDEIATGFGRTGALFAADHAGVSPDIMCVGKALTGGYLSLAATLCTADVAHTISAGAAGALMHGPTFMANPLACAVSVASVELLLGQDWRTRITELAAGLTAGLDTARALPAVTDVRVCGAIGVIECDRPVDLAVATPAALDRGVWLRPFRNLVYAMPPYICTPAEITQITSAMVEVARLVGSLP

[5] = target: 72 kDa type IV collagenase (Homo sapiens, UniProt P08253); experiment: Dose Response validation of uHTS RPN11 inhibitor hits using a MMP-2 Fluorescence assay.; assay type: functional
Sequence of 72 kDa type IV collagenase (P08253 whole entry): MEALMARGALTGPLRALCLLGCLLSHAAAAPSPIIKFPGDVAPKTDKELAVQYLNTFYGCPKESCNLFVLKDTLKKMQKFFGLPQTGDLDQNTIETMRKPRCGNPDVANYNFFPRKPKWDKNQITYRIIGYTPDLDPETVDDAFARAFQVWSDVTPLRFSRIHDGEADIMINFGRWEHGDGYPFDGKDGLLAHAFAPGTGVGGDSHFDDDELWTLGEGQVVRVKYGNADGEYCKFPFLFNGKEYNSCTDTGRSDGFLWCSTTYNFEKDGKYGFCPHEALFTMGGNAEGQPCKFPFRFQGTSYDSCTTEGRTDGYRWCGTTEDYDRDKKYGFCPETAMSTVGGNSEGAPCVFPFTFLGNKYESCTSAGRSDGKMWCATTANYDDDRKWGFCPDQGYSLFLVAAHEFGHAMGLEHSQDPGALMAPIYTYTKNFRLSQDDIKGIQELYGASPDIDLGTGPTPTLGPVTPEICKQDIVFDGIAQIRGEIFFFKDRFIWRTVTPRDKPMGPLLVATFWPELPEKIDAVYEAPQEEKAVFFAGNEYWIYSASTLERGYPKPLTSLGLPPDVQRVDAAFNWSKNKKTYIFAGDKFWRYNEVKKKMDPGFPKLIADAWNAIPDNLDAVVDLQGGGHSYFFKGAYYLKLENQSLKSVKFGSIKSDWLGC

[6] = target: 26S proteasome non-ATPase regulatory subunit 14 (Homo sapiens, UniProt O00487); experiment: inhibition of proteasome subunit RPN11 – biochemical, fluorescence polarization, uHTS hits, confirmation (AID 602368); assay type: functional
Sequence of 26S proteasome non-ATPase regulatory subunit 14 (O00487 whole entry): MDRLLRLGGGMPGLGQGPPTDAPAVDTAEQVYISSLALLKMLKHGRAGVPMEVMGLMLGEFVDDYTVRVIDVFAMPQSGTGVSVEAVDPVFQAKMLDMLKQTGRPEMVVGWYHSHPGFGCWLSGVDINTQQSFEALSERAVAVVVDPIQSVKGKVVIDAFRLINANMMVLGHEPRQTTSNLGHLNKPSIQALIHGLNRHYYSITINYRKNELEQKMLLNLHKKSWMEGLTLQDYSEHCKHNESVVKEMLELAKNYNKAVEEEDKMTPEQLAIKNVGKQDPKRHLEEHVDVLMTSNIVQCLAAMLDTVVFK

Prothrombin = Prothrombin (Bos taurus, UniProt P00735); experiment: thrombin protease inhibitors – biochemical, fluorescence polarization, uHTS hits, dose response (AID 602369); assay type: functional
Melanocortin receptor 4 = Melanocortin receptor 4 (Homo sapiens, UniProt P32245); assay type: functional, cell-based;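 note: Cell-based assay with luminescence read-out, confirmatory dose-response testing for agonist activity of biased ligands at MC4R; human U2OS cells with tagged receptor and beta-arrestin; potency of agonists that increase receptor coupling to beta-arrestin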
Sequence of Melanocortin receptor 4 (P32245 whole entry): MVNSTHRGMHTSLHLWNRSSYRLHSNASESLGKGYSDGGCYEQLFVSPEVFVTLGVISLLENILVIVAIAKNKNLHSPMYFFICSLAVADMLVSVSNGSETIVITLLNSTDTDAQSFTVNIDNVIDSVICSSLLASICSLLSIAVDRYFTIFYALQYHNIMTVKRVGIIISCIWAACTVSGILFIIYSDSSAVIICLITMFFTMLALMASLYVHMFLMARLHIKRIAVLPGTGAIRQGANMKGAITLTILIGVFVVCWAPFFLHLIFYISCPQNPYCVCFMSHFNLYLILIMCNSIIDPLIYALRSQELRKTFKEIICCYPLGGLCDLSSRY

[7] = target: Eukaryotic translation initiation factor 4E (Mus musculus, UniProt P63073); experiment: blockers of eIF4G binding by eIF4E – biochemical, TR-FRET, dose response (AID 855); assay type: functional;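 note: potency for disrupting eIF4E binding to eIF4GI seen as loss of FRET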
Sequence of Eukaryotic translation initiation factor 4E (P63073 whole entry): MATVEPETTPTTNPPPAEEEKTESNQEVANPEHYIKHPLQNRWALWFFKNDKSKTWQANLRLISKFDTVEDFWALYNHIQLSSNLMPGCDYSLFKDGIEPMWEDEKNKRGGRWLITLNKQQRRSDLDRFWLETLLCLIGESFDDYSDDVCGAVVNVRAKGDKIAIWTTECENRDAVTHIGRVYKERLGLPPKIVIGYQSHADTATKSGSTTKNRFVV

[8] = target: FAD-linked sulfhydryl oxidase ALR (Homo sapiens, UniProt P55789); experiment: ALR-catalysed DTT oxidation blockers – biochemical, H2O2 detection, luminescence, cherry-pick, dose response (AID 493248)
Sequence of FAD-linked sulfhydryl oxidase ALR (P55789 whole entry): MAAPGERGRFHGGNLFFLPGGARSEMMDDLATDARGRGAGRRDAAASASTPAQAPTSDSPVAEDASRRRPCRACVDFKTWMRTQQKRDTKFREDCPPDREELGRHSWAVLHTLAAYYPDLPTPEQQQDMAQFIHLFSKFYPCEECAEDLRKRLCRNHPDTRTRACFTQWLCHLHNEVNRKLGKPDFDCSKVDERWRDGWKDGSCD

[9] = test system: Streptococcus sp. 'group A'; experiment: Streptococcus pyogenes SK(-)GAS viability under kanamycin – luminescence, BacTiterGlo, confirmation, counter-screen for streptokinase expression inhibitor project, dose response (AID 1900); assay type: functional, organism-based; details: Streptococcus sp. 'group A'
[10] = target: T3, Long-chain-fatty-acid--AMP ligase FadD28 (Mycobacterium tuberculosis, UniProt P9WQ59); experiment: Fluorescence polarization aasay to screen for inhibitors that compete for the binding of FadD28 to a bisubstrate Measured in Biochemical System Using Plate Reader - 2147-01_Inhibitor_Dose_CherryPick_Activity.; assay type: functional, Mycobacterium tuberculosis H37Rv
T3 sequence (P9WQ59 whole entry): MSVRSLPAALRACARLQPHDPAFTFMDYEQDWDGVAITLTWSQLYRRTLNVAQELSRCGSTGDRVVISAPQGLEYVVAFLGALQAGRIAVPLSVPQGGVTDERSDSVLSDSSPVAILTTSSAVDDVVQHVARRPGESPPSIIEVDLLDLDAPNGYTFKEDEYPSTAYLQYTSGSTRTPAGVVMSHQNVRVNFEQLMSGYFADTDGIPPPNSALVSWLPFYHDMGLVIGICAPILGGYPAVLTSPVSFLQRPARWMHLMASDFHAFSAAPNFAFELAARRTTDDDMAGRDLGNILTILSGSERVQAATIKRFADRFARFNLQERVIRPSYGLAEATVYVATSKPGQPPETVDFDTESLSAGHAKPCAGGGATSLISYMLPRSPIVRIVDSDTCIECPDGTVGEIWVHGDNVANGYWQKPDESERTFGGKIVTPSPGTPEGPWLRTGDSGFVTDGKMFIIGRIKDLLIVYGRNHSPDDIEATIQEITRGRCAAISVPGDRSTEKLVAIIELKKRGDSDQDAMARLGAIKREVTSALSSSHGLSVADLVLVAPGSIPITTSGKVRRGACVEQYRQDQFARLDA

Streptococcus = experiment: GAS UMAA2166 growth inhibition – luminescence, BacTiterGlo, counter-screen for streptokinase expression inhibitor project, dose response (AID 1915); assay type: functional, organism-based; details: Streptococcus;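 note: potency for reduction of bacterial viability or growth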
Streptokinase A = target: T4, Streptokinase A (Streptococcus pyogenes serotype M1, UniProt P10520); experiment: viability-normalized secreted streptokinase activity reduction – plasminogen activation absorbance, OD405, dose response (AID 1914); assay type: functional, Streptococcus pyogenes M1 GAS;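 note: secreted streptokinase activity via plasminogen activation per viability signal from cell pellet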
T4 sequence (P10520 whole entry): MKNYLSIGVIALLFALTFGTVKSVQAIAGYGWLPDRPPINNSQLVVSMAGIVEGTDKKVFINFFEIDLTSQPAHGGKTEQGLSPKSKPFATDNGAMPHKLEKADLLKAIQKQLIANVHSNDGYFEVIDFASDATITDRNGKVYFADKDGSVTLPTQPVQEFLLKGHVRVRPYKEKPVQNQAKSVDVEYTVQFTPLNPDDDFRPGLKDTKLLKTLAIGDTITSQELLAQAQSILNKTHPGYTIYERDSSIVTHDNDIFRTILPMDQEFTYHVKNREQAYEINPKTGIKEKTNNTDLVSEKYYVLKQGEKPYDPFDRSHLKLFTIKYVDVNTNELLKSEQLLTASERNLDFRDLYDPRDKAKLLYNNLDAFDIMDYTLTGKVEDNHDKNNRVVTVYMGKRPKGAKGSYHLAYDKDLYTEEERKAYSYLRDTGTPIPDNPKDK

[11] = bead-based luminescence quenchers, dual-tagged ARNT – biochemical, AlphaScreen, cherry-pick, artefact control for ARNT-TACC3 interaction inhibitor project, dose response (AID 651705); assay type: functional;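 note: AlphaScreen bead proximity signal that flags compounds interfering with the detection technology; potency reflects signal decrease which marks the compound as an assay artifact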
cells [12] = assay type: functional
cells [13] = assay type: functional, cell-based
[14] = Luminescence Cell-Based Dose Confirmation HTS to Identify Inhibitors of Platelet Dense Granule Release. [Related pubchem assays: 1663 (Primary HTS), 1678 (Summary of Project)]; assay type: functional
[15] = target: Luciferin 4-monooxygenase (Photinus pyralis, UniProt P08659); experiment: inhibition of purified Photinus pyralis luciferase – biochemical, luminescence, dose response (AID 1891)
Sequence of Luciferin 4-monooxygenase (P08659 whole entry): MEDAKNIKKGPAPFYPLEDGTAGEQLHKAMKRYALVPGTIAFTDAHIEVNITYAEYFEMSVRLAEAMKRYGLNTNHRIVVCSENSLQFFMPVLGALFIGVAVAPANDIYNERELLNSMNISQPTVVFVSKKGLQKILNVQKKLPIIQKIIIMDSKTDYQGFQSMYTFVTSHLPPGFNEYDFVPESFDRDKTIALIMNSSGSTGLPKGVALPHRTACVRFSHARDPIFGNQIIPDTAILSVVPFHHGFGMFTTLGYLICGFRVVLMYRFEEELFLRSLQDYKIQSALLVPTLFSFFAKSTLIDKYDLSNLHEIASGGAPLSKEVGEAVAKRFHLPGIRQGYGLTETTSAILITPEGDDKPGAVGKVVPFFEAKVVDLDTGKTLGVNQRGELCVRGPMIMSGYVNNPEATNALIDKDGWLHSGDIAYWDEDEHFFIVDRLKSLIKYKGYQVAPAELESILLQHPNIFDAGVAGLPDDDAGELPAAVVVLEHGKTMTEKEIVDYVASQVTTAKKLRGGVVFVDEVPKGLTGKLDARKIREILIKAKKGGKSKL

cells [16] = assay type: functional, cell-based; remark: listed apart in the source
[17] = THP-1 cell cytotoxicity, dose response, cytotoxicity control for non-replicating M. tuberculosis project (AID 489025); assay type: functional
[18] = A549 cell cytotoxicity, dose response, cytotoxicity control, plate reader, cherry-pick, antagonist series (AID 743412); assay type: functional, cell-based
[19] = HepG2 cell cytotoxicity, dose response, cytotoxicity control for non-replicating M. tuberculosis project (AID 489018); assay type: functional; details: Mycobacterium tuberculosis
[20] = fluconazole-exposed Candida albicans growth modulators – fluorescence, retest, confirmation (AID 2467); assay type: functional, cell-based
INS1 = experiment: INS-1E survival protection against cytokine death – cell-based, luminescence, retest, dose response (AID 449756); assay type: functional; details: Rattus norvegicus;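 note: cell death triggered by IL-1 beta plus TNF-alpha plus IFN-gamma mixture; protective hits raise ATP signal compared with cytokine alone wells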
[21] = toxicity toward HepG2 liver cells – cell-based, plate reader, cherry-pick, antagonist series, cytotoxicity control, dose response (AID 743416); assay type: functional
[22] = Luminescence Cell-Based Dose Response HTS to Identify Inhibitors of 5'UTR Stem-Loop Driven Prion Protein mRNA Translation in H4 Neuroglioblastoma Cells. [Related pubchem assays: 1827 (Project Summary), 1813 (Primary HTS)]; assay type: functional
[23] = Vero E6 cell cytotoxicity, dose response, cytotoxicity control for non-replicating M. tuberculosis project, secondary assay (AID 492998); assay type: functional, VeroE6; details: Vero C1008
[24] = luciferase reporter signal suppression in cells – H4 neuroglioma cells, luminescence, dose response (AID 1990); assay type: functional, cell-based
[25] = NIH-3T3 fibroblast cytotoxicity, dose response, cytotoxicity control, cell-based, fluorescence, Alamar Blue, secondary assay (AID 2327); assay type: functional;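 note: NIH-3T3 mouse fibroblasts cultured with fluconazole at 8 µg/mL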
[26] = blockers of bursicon-stimulated LGR2 cAMP reporter – cell-based, HEK293, CRE-luciferase reporter, cherry pick, set 2, dose response (AID 743343); assay type: functional;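 note: transfected cells were stimulated with diluted bursicon conditioned medium after compound addition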
[27] = alpha-synuclein stem-loop luciferase translation blockers – H4 neuroglioma cells, luminescence, confirmation (AID 1988); assay type: functional, cell-based
[28] = target: Dual specificity tyrosine-phosphorylation-regulated kinase 1A (Rattus norvegicus, UniProt Q63470); assay type: biochemical, Homo sapiens
[29] = HGIII-sPLA2 enzyme inhibition potency – biochemical, QFRET, IC50, dose response (AID 743457);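 note: green fluorescence rise as the enzyme cleaves BODIPY PC-A2 in liposomes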

CCCCNC(=O)c1ccc2c(OCC)n(CCCC)nc2c1
IC50 [1]: 13.1 µM (active)

CCn1cc(CNC(=O)c2cc(COc3ccc(F)cc3F)on2)cn1
IC50 [1]: 18.2 µM (active)

COc1ccc2c(c1)C(C)=CC(C)(C)N2C(=O)CNCc1ccc2c(c1)OCO2
CC50 [2]: > 50 µM (active) | AC50 [3]: 40.4 µM (active)

O=C(CSc1nc2cc(C(=O)O)ccc2c(=O)n1-c1ccc(F)cc1)Nc1ccc(F)c(F)c1F
AC50 [4]: 2.65 µM (active)

C(=C\c1ccco1)/C1=NN(c2ccccc2)C(c2ccco2)C1 (stereo not given)
IC50 [5]: > 100 µM (inactive) | IC50 [6]: 22.8 µM (active) | IC50 (Prothrombin): 14.8 µM (active)

CCn1c(SCC(=O)Nc2ccc(C(C)=O)cc2)nc2nc3c(cc2c1=O)CCCC3
EC50 (Melanocortin receptor 4): > 89.2 µM (inactive) | IC50 [7]: > 64 µM (inactive)

Cc1ccc(-n2cccc2/C=C2/C(=N)N3C(=NC2=O)SN=C3S(C)(=O)=O)cc1
IC50 [5]: > 100 µM (inactive) | AC50 [8]: 0.598 µM (active) | IC50 [6]: 26.2 µM (active) | IC50 (Prothrombin): 86.9 µM (active)

CCc1c(O)n(C2CCCCC2)c(SCC(=O)Nc2nc3ccccc3s2)nc1=O
EC50 [9]: 11.8 µM (active) | AC50 [10]: 29 µM (active) | EC50 (Streptococcus): 122 µM (active) | EC50 (Streptokinase A): 17.1 µM (active)

Cc1cc(C)cc(-n2cccc2/C=C2/C(=N)N3C(=NC2=O)SN=C3S(C)(=O)=O)c1
IC50 [5]: 81.6 µM (active) | IC50 [6]: 37.6 µM (active) | IC50 (Prothrombin): 74.6 µM (active)

Clc1cccc(-c2ccc(CNCc3ccccn3)o2)c1
AC50 [11]: 94.4 µM (active) | IC50 (cells [12]): 3.05 µM (active)

CN1c2ccc(-c3ccccc3)cc2[C@H]2[C@H](CCN2C(=O)Cc2ccccn2)[C@H]1CO
AC50 [4]: 6.13 µM (active)

CCC(NCCc1ccccc1)=C1C(=O)NC(=O)NC1=O
IC50 (cells [13]): > 29.9 µM (inactive) | EC50 [14]: 14.5 µM (active) | EC50 [15]: > 112 µM (not active) | EC50 (cells [16]): > 29.9 µM (inactive)

CC(=O)c1cccc(OCC(O)CNCCc2ccc(Cl)cc2)c1 (stereo not given)
IC50 (cells [13]): > 29.9 µM (inactive) | EC50 (cells [16]): > 29.9 µM (inactive)

CC(Oc1ccccc1)C(=O)OCC(=O)N1CC(=O)Nc2ccccc21 (stereo not given)
AC50 [10]: > 100 µM (inactive)

CC(C)c1ccc2c(c1)C(N1CCNCC1)Cc1ccc(F)cc1S2 (stereo not given)
CC50 [17]: 16.3 µM (active) | AC50 [18]: 6.71 µM (active) | CC50 [19]: 18.1 µM (active) | EC50 [20]: > 38 µM (not active) | IC50 (cells [12]): 14.2 µM (active) | AC50 (INS1): 6.71 µM (active) | AC50 [21]: 7.87 µM (active) | EC50 [22]: 25.7 µM (active) | CC50 [23]: 12.3 µM (active) | EC50 [24]: > 120 µM (not active) | EC50 [25]: > 150 µM (inactive) | AC50 [26]: 38.2 µM (active) | EC50 [27]: 11.6 µM (active)

O=c1[nH]c(N2CCN(Cc3ccc4c(c3)OCO4)CC2)nc2c1CCC2
AC50 [4]: 0.93 µM (active)

CC1(C)Oc2ccc3ccc(=O)oc3c2C(/C=N/c2ccc(O)cc2)=C1O
EC50 (Melanocortin receptor 4): > 89.2 µM (inactive)

COc1ccc2cc(-c3cccnc3)ncc2c1
AC50 [28]: 6.39 µM (active)

O=C(NNC(=S)NC1CCCCC1)c1ccccc1Cl
IC50 [29]: > 122 µM (inactive)

Cc1ccc2cc3c(NS(=O)(=O)c4cccc5nonc45)nn(CC(C)C)c3nc2c1
IC50 [1]: 13.8 µM (active)

COc1ccccc1NC(=O)Nc1nc(C(N)Cc2ccc(Cl)cc2)cs1 (stereo not given)
EC50 (Melanocortin receptor 4): > 89.2 µM (inactive)

— ChEMBL document CHEMBL1201862, “PubChem BioAssay data set” (2004)
